Values of other authors as cited in US20240335441A1, “METHOD OF TREATING POSTTRAUMATIC STRESS DISORDER” (Jazz Pharmaceuticals Ireland Limited, priority 2021, published 2024).

Key:
[1] = tested on: men with cannabis use disorder (CUD); settings: compared to placebo
[2] = tested on: healthy volunteers; settings: placebo-controlled

What does the source list for O=C(Nc1cccnn1)N1CCC(=Cc2cccc(Oc3ccc(C(F)(F)F)cn3)c2)CC1 [Compound A, N-Pyridazin-3-yl-4-{3-[5-(trifluoromethyl)-2-pyridyloxy]benzylidene}piperidine-1-carboxamide]?
self-reported overall sleep [1]: improved; slow wave sleep as measured by polysomnography [1]: significantly increased; negative affect in response to an aversive stimulus [2]: blunted; recall of fear extinction memory [2]: enhanced
